Values belong to the compound of their own block, whether it stands above or below them.
Experiments:
conscious SH rats = test: Radiotelemetric measurement of blood pressure and heart rate on conscious SH rats; format: in vivo, spontaneously hypertensive rats (SH rats); settings: oral administration of 0.3 mg/kg
Description: B-3. Radiotelemetric Measurement of Blood Pressure and Heart Rate on Conscious SH Rats
A commercially available telemetry system from Data Sciences International DSI, USA, is employed for the measurements on conscious SH rats described below.
The system consists of 3 main components: (1) implantable transmitter, (2) receiver which is linked via a multiplexer to a (3) data acquisition computer. The telemetry system makes it possible to record continuously the blood pressure and heart rate on conscious animals in their usual habitat.
The investigations are carried out on adult female spontaneously hypertensive rats (SH rats) with a body weight of >200 g. After transmitter implantation, the experimental animals are housed singly in type 3 Makrolon cages. They have free access to standard feed and water. […]
The telemetry measuring unit is configured for 24 animals. Each experiment is recorded under an experiment number.
Each of the instrumented rats living in the system is assigned a separate receiving antenna (1010 Receiver, DSI). […] The emitted signals can be detected online by a data acquisition system (Dataquest™ A.R.T. for Windows, DSI) and be appropriately processed. […]
In the standard procedure, the following are measured for 10-second periods in each case: (1) systolic blood pressure (SBP), (2) diastolic blood pressure (DBP), (3) mean arterial pressure (MAP) and (4) heart rate (HR). […]

saphenous artery rings = test: Vasorelaxant effect in vitro (phenylephrine-contracted artery rings); format: cell-based, Rabbits; settings: rabbit saphenous artery rings, contraction induced by phenylephrine
Protocol: B-1. Vasorelaxant Effect In Vitro:
Rabbits are anaesthetized and sacrificed by intravenous injection of thiopental sodium (about 50 mg/kg) and exsanguinated. The saphenous artery is removed and divided into rings 3 mm wide. The rings are mounted singly on in each case a pair of triangular hooks open at the end and made of 0.3 mm-thick special wire (Remanium®). Each ring is placed under an initial tension in 5 ml organ baths with Krebs-Henseleit solution which is at 37° C., is gassed with 95% O2/5% CO2 and has the following composition: NaCl 119 mM; KCl 4.8 mM; CaCl2×2H2O 1 mM; MgSO4×7H2O 1.4 mM; KH2PO4 1.2 mM; NaHCO3 25 mM; glucose 10 mM; bovine serum albumin 0.001%. The force of contraction is detected with Statham UC2 cells, amplified and digitized via A/D converters (DAS-1802 HC, Keithley Instruments, Munich) and recorded in parallel on chart recorders. Contractions are induced by addition of phenylephrine.
After several (generally 4) control cycles, the substance to be investigated is added in each further run in increasing dosage, and the height of the contraction achieved under the influence of the test substance is compared with the height of the contraction reached in the last preceding run. The concentration necessary to reduce the contraction reached in the preceding control by 50% is calculated from this (IC50). The standard application volume is 5 μl. The proportion of DMSO in the bath solution corresponds to 0.1%.

[1] = target: T1, Haem-free sGC (recombinant soluble guanylate cyclase) (Rattus norvegicus, UniProt P20595); test: Stimulation of recombinant soluble guanylate cyclase (sGC) in vitro, haem-free enzyme; format: biochemical
T1 construct: made in house; host or cells: Sf9 insect cells (baculovirus)
T1 sequence (P20595 1-619): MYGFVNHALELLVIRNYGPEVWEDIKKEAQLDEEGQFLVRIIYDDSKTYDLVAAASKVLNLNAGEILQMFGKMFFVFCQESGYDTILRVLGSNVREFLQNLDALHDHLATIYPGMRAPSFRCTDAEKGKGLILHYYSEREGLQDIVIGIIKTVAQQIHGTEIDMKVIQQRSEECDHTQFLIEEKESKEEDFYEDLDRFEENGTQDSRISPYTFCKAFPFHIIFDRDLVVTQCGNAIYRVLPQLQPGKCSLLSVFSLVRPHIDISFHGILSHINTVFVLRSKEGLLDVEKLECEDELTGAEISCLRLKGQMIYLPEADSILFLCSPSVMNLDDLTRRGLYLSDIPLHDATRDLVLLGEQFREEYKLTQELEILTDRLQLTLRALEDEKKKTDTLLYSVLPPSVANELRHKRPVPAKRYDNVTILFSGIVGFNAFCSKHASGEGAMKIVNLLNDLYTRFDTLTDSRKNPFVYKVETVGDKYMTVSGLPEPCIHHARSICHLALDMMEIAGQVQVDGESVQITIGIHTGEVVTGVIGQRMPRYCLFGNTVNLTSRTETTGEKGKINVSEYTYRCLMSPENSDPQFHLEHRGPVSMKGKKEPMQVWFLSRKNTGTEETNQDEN
T1 sequence (P19686 1-690 partner): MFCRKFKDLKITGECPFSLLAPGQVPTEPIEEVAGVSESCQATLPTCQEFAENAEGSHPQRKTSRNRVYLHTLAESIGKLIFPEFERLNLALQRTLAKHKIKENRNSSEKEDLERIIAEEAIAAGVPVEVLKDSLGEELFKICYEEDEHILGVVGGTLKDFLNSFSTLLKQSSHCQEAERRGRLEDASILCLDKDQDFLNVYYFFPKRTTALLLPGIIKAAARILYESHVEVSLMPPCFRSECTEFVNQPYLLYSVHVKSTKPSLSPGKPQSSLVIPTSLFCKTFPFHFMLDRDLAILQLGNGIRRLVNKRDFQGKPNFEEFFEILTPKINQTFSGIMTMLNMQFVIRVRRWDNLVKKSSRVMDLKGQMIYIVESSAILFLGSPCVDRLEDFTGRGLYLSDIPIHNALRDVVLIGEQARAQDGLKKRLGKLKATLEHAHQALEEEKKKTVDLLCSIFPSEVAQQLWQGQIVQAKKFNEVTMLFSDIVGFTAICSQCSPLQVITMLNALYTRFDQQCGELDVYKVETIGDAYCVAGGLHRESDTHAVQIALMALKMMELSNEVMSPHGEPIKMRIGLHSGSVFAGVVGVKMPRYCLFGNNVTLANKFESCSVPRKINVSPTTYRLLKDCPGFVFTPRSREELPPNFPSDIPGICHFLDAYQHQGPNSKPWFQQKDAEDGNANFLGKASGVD
Protocol: (§1) B-2. Stimulation of Recombinant Soluble Guanylate Cyclase (sGC) In Vitro:
Investigations on the stimulation of recombinant soluble guanylate cyclase (sGC) by the compounds according to the invention with and without sodium nitroprusside, and with and without the haem-dependent sGC inhibitor 1H-1,2,4-oxadiazole-(4,3a)-quinoxalin-1-one (ODQ) are carried out by the method described in detail in the following reference: M. Hoenicka, E. M. Becker, H. Apeler, T. Sirichoke, H. Schroeder, R. Gerzer and J.-P. Stasch, “Purified soluble guanylyl cyclase expressed in a baculovirus/Sf9 system: Stimulation by YC-1, nitric oxide, and […]”, J. Mol. Med. 77 (1999), 14-23. The haem-free guanylate cyclase is obtained by adding Tween 20 to the sample buffer (0.5% in the final concentration).
(§2) The activation of sGC by a test substance is reported as n-fold stimulation of the basal activity.

[2] = target: T2, Haem-containing sGC (recombinant soluble guanylate cyclase) (Rattus norvegicus, UniProt P20595); test: Stimulation of recombinant soluble guanylate cyclase (sGC) in vitro, haem-containing enzyme; format: biochemical
T2 construct: made in house; host or cells: Sf9 insect cells (baculovirus)
T2 sequence (P20595 1-619): T1 sequence (P20595 1-619)
T2 sequence (P19686 1-690 partner): T1 sequence (P19686 1-690 partner)
Description: as §1
Hoenicka, E. M. Becker, H. Apeler, T. Sirichoke, H. Schroeder, R. Gerzer and J.-P. Stasch, “Purified soluble guanylyl cyclase expressed in a baculovirus/Sf9 system: Stimulation by YC-1, nitric oxide, and carbon oxide”, J. Mol. Med. 77 (1999), 14-23. The haem-free guanylate cyclase is obtained by adding Tween 20 to the sample buffer (0.5% in the final concentration).
as §2

- IC50 (saphenous artery rings; Oryctolagus cuniculus): 0.7 nM
Compound: CCCCCCOc1ccccc1/C=C/C(CCc1ccc(C(=O)O)cc1)Cc1ccc(C(=O)O)cc1 (racemic) [Example 20, 4-{(4E)-3-(4-Carboxybenzyl)-5-[2-(hexyloxy)phenyl]pent-4-en-1-yl}benzoic Acid]
- Period of blood pressure reduction (conscious SH rats): 11 h
- Reduction in blood pressure (conscious SH rats): marked reduction in blood pressure

- Stimulation (n-fold) Haem-free sGC Basal ([1]; 0.001 μM Example 5): 19.2 n-fold
- Stimulation (n-fold) Haem-free sGC +10 μM ODQ ([1]; 0.001 μM Example 5 +10 μM ODQ): 18.4 n-fold
- Stimulation (n-fold) Haem-free sGC Basal ([1]; 0.01 μM Example 5): 105.8 n-fold
- Stimulation (n-fold) Haem-free sGC +10 μM ODQ ([1]; 0.01 μM Example 5 +10 μM ODQ): 100.5 n-fold
- Stimulation (n-fold) Haem-free sGC Basal ([1]; 0.1 μM Example 5): 185.3 n-fold
- Stimulation (n-fold) Haem-free sGC +10 μM ODQ ([1]; 0.1 μM Example 5 +10 μM ODQ): 170.4 n-fold
- Stimulation (n-fold) Haem-free sGC Basal ([1]; 1 μM Example 5): 201.2 n-fold
- Stimulation (n-fold) Haem-free sGC +10 μM ODQ ([1]; 1 μM Example 5 +10 μM ODQ): 189.2 n-fold
- Stimulation (n-fold) Haem-free sGC Basal ([1]; 10 μM Example 5): 203.1 n-fold
- Stimulation (n-fold) Haem-free sGC +10 μM ODQ ([1]; 10 μM Example 5 +10 μM ODQ): 180.7 n-fold
- Stimulation (n-fold) Haem-containing sGC Basal ([2]; 0.001 μM Example 5): 3.5 n-fold
- Stimulation (n-fold) Haem-containing sGC +0.1 μM DEA/NO ([2]; 0.001 μM Example 5 +0.1 μM DEA/NO): 88.3 n-fold
- Stimulation (n-fold) Haem-containing sGC +10 μM ODQ ([2]; 0.001 μM Example 5 +10 μM ODQ): 40.3 n-fold
- Stimulation (n-fold) Haem-containing sGC Basal ([2]; 0.01 μM Example 5): 17.2 n-fold
- Stimulation (n-fold) Haem-containing sGC +0.1 μM DEA/NO ([2]; 0.01 μM Example 5 +0.1 μM DEA/NO): 102.9 n-fold
- Stimulation (n-fold) Haem-containing sGC +10 μM ODQ ([2]; 0.01 μM Example 5 +10 μM ODQ): 83.0 n-fold
- Stimulation (n-fold) Haem-containing sGC Basal ([2]; 0.1 μM Example 5): 35.1 n-fold
- Stimulation (n-fold) Haem-containing sGC +0.1 μM DEA/NO ([2]; 0.1 μM Example 5 +0.1 μM DEA/NO): 123.1 n-fold
- Stimulation (n-fold) Haem-containing sGC +10 μM ODQ ([2]; 0.1 μM Example 5 +10 μM ODQ): 149.5 n-fold
- Stimulation (n-fold) Haem-containing sGC Basal ([2]; 1 μM Example 5): 44.2 n-fold
- Stimulation (n-fold) Haem-containing sGC +0.1 μM DEA/NO ([2]; 1 μM Example 5 +0.1 μM DEA/NO): 124.1 n-fold
- Stimulation (n-fold) Haem-containing sGC +10 μM ODQ ([2]; 1 μM Example 5 +10 μM ODQ): 162.1 n-fold
- Stimulation (n-fold) Haem-containing sGC Basal ([2]; 10 μM Example 5): 59.5 n-fold
- Stimulation (n-fold) Haem-containing sGC +0.1 μM DEA/NO ([2]; 10 μM Example 5 +0.1 μM DEA/NO): 152.0 n-fold
- Stimulation (n-fold) Haem-containing sGC +10 μM ODQ ([2]; 10 μM Example 5 +10 μM ODQ): 171.2 n-fold
- Synergy of combination with NO donor DEA/NO on sGC stimulation ([2]; combination with DEA/NO): no synergistic effect
- IC50 (saphenous artery rings): 4.9 nM
Compound: O=C(O)c1ccc(CCC(/C=C/c2ccccc2OCCCCCc2ccccc2)Cc2ccc(C(=O)O)cc2)cc1 (racemic) [Example 5, 4-((4E)-3-(4-Carboxybenzyl)-5-{2-[(5-phenylpentyl)oxy]phenyl}pent-4-en-1-yl)benzoic Acid]

From US8609727B2, “Dicarboxylic acid derivatives and their use” (Bayer Intellectual Property GmbH, priority 2005, dated 2013)
